Reference: patent publication EP4603105A1, “PHARMACEUTICAL COMPOSITION CONTAINING CYCLIC COMPOUND HAVING SELECTIVE KRAS INHIBITORY EFFECT AGAINST HRAS AND NRAS” (CHUGAI SEIYAKU KABUSHIKI KAISHA, priority 2022, dated 2024)

Key:
[1] = target: GDP-bound KRAS wild-type protein (Homo sapiens, UniProt P01116); assay: Binding to KRAS by surface plasmon resonance (SPR), dissociation constant KD; conditions: Single Cycle Kinetics
How it was run: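 Captured GDP-RAS (~100–300 RU) was exposed to increasing compound concentrations, 75 s per step, in running buffer with 10 µM GDP, 10 mM MgCl2 and 4% DMSO at pH 7.4.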

[2] = target: GDP-bound NRAS wild-type protein (Homo sapiens, UniProt P01111); assay: Binding to NRAS by surface plasmon resonance (SPR), KD and KD ratio to KRAS; conditions: ratio of KD for GDP-bound NRAS wild-type protein to KD for KRAS
How it was run: (§1)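 GDP-bound biotin-Avi RAS captured at ~100–300 RU, 30°C, pH 7.4 HBS containing 10 µM GDP, 10 mM MgCl2, 1 mM DTT, 0.01% Tween 20 and 4% DMSO. KD by 1:1 fitting.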

HRAS wild-type protein = HRAS wild-type protein (Homo sapiens, UniProt P01112); assay: Binding to HRAS by surface plasmon resonance (SPR), KD and KD ratio to KRAS; conditions: ratio of KD for HRAS wild-type protein to KD for KRAS
How it was run: as §1

[3] = tested on: human lung cancer strain NCI-H441; assay: NCI-H441 cell proliferation inhibitory activity (CellTiter-Glo, 4 days); type: cell-based; conditions: NCI-H441 cells, 4 days, read-out: NCl-H441 IC50
How it was run: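 Readout: […] after the ATP-based reagent. Compound: serial dilutions in dimethyl sulfoxide.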

GDP-bound NRAS wild-type protein, sequence (P01111 whole entry): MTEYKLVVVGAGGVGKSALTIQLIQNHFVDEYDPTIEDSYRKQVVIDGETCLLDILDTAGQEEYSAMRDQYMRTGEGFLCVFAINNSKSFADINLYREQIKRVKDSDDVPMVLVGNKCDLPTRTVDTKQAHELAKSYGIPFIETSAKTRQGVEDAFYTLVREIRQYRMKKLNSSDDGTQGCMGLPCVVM
HRAS wild-type protein, sequence (P01112 whole entry): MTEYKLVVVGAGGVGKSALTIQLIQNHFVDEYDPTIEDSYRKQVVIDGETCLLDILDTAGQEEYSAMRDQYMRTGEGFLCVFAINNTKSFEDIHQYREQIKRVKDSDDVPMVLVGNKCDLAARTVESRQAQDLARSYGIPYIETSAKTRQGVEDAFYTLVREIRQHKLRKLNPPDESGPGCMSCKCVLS
GDP-bound KRAS wild-type protein, sequence (P01116 1-188 isoform P01116-2): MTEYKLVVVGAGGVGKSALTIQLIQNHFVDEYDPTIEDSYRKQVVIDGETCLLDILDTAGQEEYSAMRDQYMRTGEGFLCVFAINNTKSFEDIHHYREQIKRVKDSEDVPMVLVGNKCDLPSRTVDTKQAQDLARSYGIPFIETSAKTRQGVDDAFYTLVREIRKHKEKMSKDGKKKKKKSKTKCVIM

## CCO[C@@H]1C[C@H]2C(=O)NC3(CC(C)(C)C3)C(=O)N(C)[C@@H](C3CCCC3)C(=O)N(C)[C@H](C(=O)N(C)C)CC(=O)N(C)[C@@H]([C@H](C)OC)C(=O)N[C@@H]([C@@H](C)CC)C(=O)N(C)CC(=O)N(C)[C@H]3C/C=C\CCN(C3=O)[C@@H](Cc3ccc(C(F)(F)F)cc3)C(=O)N(C)CC(=O)N[C@@H](CCc3ccc(C(F)(F)F)c(OC)c3)C(=O)N2C1 [PP3167]
[1]
  Kd: 0.1 nM
[2]
  NRAS /KRAS: B (a compound having 3 or more and less than 10 is denoted as B)
HRAS wild-type protein
  HRAS /KRAS: A (a compound having 10 or more and less than 20 is denoted as A)
[3]
  IC50: 9.8 nM

## CCO[C@@H]1C[C@H]2C(=O)NC3(CC(C)(C)C3)C(=O)N(C)[C@@H](C3CCCC3)C(=O)N(C)[C@H](C(=O)N(C)C)CC(=O)N(C)[C@@H]([C@H](C)OC)C(=O)N[C@@H]([C@@H](C)CC)C(=O)N(C)CC(=O)N(C)[C@H]3C/C=C\CCN(C3=O)[C@@H](Cc3ccc(C(F)(F)F)cc3)C(=O)N(C)CC(=O)N[C@@H](CCc3cc(F)c(C(F)(F)F)c(F)c3)C(=O)N2C1 [PP3169]
[1]
  Kd: 0.064 nM
[2]
  NRAS /KRAS: A (a compound having 10 or more and less than 20 is denoted as A)
HRAS wild-type protein
  HRAS /KRAS: A (a compound having 10 or more and less than 20 is denoted as A)
[3]
  IC50: 7.9 nM

## CCO[C@@H]1C[C@H]2C(=O)NC3(CC(C)(C)C3)C(=O)N(C)[C@@H](C3CCCC3)C(=O)N(C)[C@H](C(=O)N(C)CC)CC(=O)N(C)[C@@H]([C@@H](C)OC)C(=O)N[C@@H]([C@@H](C)CC)C(=O)N3CCC[C@H]3C(=O)N(C)[C@H]3C/C=C\CCN(C3=O)[C@@H](Cc3ccc(C(F)(F)F)cc3)C(=O)N(C)CC(=O)N[C@@H](CCc3ccc(C(F)(F)F)c(OC)c3)C(=O)N2C1 [PP3170]
[1]
  Kd: 0.84 nM
[2]
  NRAS /KRAS: A (a compound having 10 or more and less than 20 is denoted as A)
HRAS wild-type protein
  HRAS /KRAS: A (a compound having 10 or more and less than 20 is denoted as A)
[3]
  IC50: 42.5 nM

## CCO[C@@H]1C[C@H]2C(=O)NC3(CC(C)(C)C3)C(=O)N(C)[C@@H](C3CCCC3)C(=O)N(C)[C@H](C(=O)N(C)C)CC(=O)N(C)[C@@H]([C@H](C)OC)C(=O)N[C@@H]([C@@H](C)CC)C(=O)N(C)CC(=O)N(C)[C@H]3C/C=C\CCN(C3=O)[C@@H](Cc3ccc(C(F)(F)F)cc3)C(=O)N(C)CC(=O)N[C@@H](CCc3ccc(C(F)(F)F)c(Cl)c3)C(=O)N2C1 [PP3171]
[1]
  Kd: 0.076 nM
[2]
  NRAS /KRAS: A (a compound having 10 or more and less than 20 is denoted as A)
HRAS wild-type protein
  HRAS /KRAS: A (a compound having 10 or more and less than 20 is denoted as A)
[3]
  IC50: 15.9 nM

## CCO[C@@H]1C[C@H]2C(=O)NC3(CC(C)(C)C3)C(=O)N(C)[C@@H](C3CCCC3)C(=O)N(C)[C@H](C(=O)N(C)CC)CC(=O)N(C)[C@@H]([C@@H](C)OC)C(=O)N[C@@H]([C@@H](C)CC)C(=O)N3CCC[C@H]3C(=O)N(C)[C@H]3C/C=C\CCN(C3=O)[C@@H](Cc3ccc(C(F)(F)F)cc3)C(=O)N(C)CC(=O)N[C@@H](CCc3cc(F)c(C(F)(F)F)c(F)c3)C(=O)N2C1 [PP3172]
[1]
  Kd: 0.81 nM
[2]
  NRAS /KRAS: AA (a compound having 20 or more is denoted as AA)
HRAS wild-type protein
  HRAS /KRAS: A (a compound having 10 or more and less than 20 is denoted as A)
[3]
  IC50: 69.9 nM

## CCO[C@@H]1C[C@H]2C(=O)NC3(CC(C)(C)C3)C(=O)N(C)[C@@H](C3CCCC3)C(=O)N(C)[C@H](C(=O)N(C)C)CC(=O)N(C)[C@@H]([C@H](C)OC)C(=O)N[C@@H]([C@@H](C)CC)C(=O)N(C3CC3)CC(=O)N(C)[C@H]3C/C=C\CCN(C3=O)[C@@H](Cc3ccc(C(F)(F)F)cc3)C(=O)N(C)CC(=O)N[C@@H](CCc3ccc(C(F)(F)F)c(OC)c3)C(=O)N2C1 [PP3173]
[1]
  Kd: 0.57 nM
[2]
  NRAS /KRAS: B (a compound having 3 or more and less than 10 is denoted as B)
HRAS wild-type protein
  HRAS /KRAS: B (a compound having 3 or more and less than 10 is denoted as B)
[3]
  IC50: 33.1 nM

## CCO[C@@H]1C[C@H]2C(=O)NC3(CC(C)(C)C3)C(=O)N(C)[C@@H](C3CCCC3)C(=O)N(C)[C@H](C(=O)N(C)CC)CC(=O)N(C)[C@@H]([C@@H](C)OC)C(=O)N[C@@H]([C@@H](C)CC)C(=O)N3CCC[C@H]3C(=O)N(C)[C@H]3C/C=C\CCN(C3=O)[C@@H](Cc3ccc(C(F)(F)F)cc3)C(=O)N(C)CC(=O)N[C@@H](CCc3ccc(C(F)(F)F)c(Cl)c3)C(=O)N2C1 [PP3174]
[1]
  Kd: 1.1 nM
[2]
  NRAS /KRAS: AA (a compound having 20 or more is denoted as AA)
HRAS wild-type protein
  HRAS /KRAS: A (a compound having 10 or more and less than 20 is denoted as A)
[3]
  IC50: 105 nM

## CCO[C@@H]1C[C@H]2C(=O)NC3(CC(C)(C)C3)C(=O)N(C)[C@@H](C3CCCC3)C(=O)N(C)[C@H](C(=O)N(C)C)CC(=O)N(C)[C@@H]([C@H](C)OC)C(=O)N[C@@H]([C@@H](C)CC)C(=O)N(C3CC3)CC(=O)N(C)[C@H]3C/C=C\CCN(C3=O)[C@@H](Cc3ccc(C(F)(F)F)cc3)C(=O)N(C)CC(=O)N[C@@H](CCc3cc(F)c(C(F)(F)F)c(F)c3)C(=O)N2C1 [PP3175]
[1]
  Kd: 0.31 nM
[2]
  NRAS /KRAS: A (a compound having 10 or more and less than 20 is denoted as A)
HRAS wild-type protein
  HRAS /KRAS: A (a compound having 10 or more and less than 20 is denoted as A)
[3]
  IC50: 15.3 nM

## CCO[C@@H]1C[C@H]2C(=O)NC3(CC(C)(C)C3)C(=O)N(C)[C@@H](C3CCCC3)C(=O)N(C)[C@H](C(=O)N(C)CC)CC(=O)N(C)[C@@H]([C@@H](C)OC)C(=O)N[C@@H]([C@@H](C)CC)C(=O)N(C)CC(=O)N(C)[C@H]3C/C=C\CCN(C3=O)[C@@H](Cc3ccc(C)cc3)C(=O)N(C)CC(=O)N[C@@H](CCc3ccc(C(F)(F)F)c(OC)c3)C(=O)N2C1 [PP3176]
[1]
  Kd: 0.09 nM
[2]
  NRAS /KRAS: A (a compound having 10 or more and less than 20 is denoted as A)
HRAS wild-type protein
  HRAS /KRAS: A (a compound having 10 or more and less than 20 is denoted as A)
[3]
  IC50: 13.6 nM

## CCO[C@@H]1C[C@H]2C(=O)NC3(CC(C)(C)C3)C(=O)N(C)[C@@H](C3CCCC3)C(=O)N(C)[C@H](C(=O)N(C)C)CC(=O)N(C)[C@@H]([C@@H](C)OC)C(=O)N[C@@H]([C@@H](C)CC)C(=O)N3CCC[C@H]3C(=O)N(C)[C@H]3C/C=C\CCN(C3=O)[C@@H](Cc3ccc(C)cc3)C(=O)N(C)CC(=O)N[C@@H](CCc3ccc(C(F)(F)F)c(Cl)c3)C(=O)N2C1 [PP3215]
[1]
  Kd: 0.68 nM
[2]
  NRAS /KRAS: A (a compound having 10 or more and less than 20 is denoted as A)
HRAS wild-type protein
  HRAS /KRAS: A (a compound having 10 or more and less than 20 is denoted as A)
[3]
  IC50: 109 nM

## CCO[C@@H]1C[C@H]2C(=O)NC3(CC(C)(C)C3)C(=O)N(C)[C@@H](C3CCCC3)C(=O)N(C)[C@H](C(=O)N(C)CC)CC(=O)N(C)[C@@H]([C@H](C)OC)C(=O)N[C@@H]([C@@H](C)CC)C(=O)N(C)CC(=O)N(C)[C@H]3C/C=C\CCN(C3=O)[C@@H](Cc3ccc(C(F)(F)F)cc3)C(=O)N(C)CC(=O)N[C@@H](CCc3cc(F)c(C(F)(F)F)c(F)c3)C(=O)N2C1 [PP3217]
[1]
  Kd: 0.18 nM
[2]
  NRAS /KRAS: A (a compound having 10 or more and less than 20 is denoted as A)
HRAS wild-type protein
  HRAS /KRAS: B (a compound having 3 or more and less than 10 is denoted as B)
[3]
  IC50: 9.9 nM

## CCO[C@@H]1C[C@H]2C(=O)NC3(CC(C)(C)C3)C(=O)N(C)[C@@H](C3CCCC3)C(=O)N(C)[C@H](C(=O)N(C)CC)CC(=O)N(C)[C@@H]([C@H](C)OC)C(=O)N[C@@H]([C@@H](C)CC)C(=O)N(C3CC3)CC(=O)N(C)[C@H]3C/C=C\CCN(C3=O)[C@@H](Cc3ccc(C(F)(F)F)cc3)C(=O)N(C)CC(=O)N[C@@H](CCc3ccc(C(F)(F)F)c(OC)c3)C(=O)N2C1 [PP3219]
[1]
  Kd: 0.53 nM
[2]
  NRAS /KRAS: A (a compound having 10 or more and less than 20 is denoted as A)
HRAS wild-type protein
  HRAS /KRAS: A (a compound having 10 or more and less than 20 is denoted as A)
[3]
  IC50: 19.6 nM

## CCO[C@@H]1C[C@H]2C(=O)NC3(CC(C)(C)C3)C(=O)N(C)[C@@H](C3CCCC3)C(=O)N(C)[C@H](C(=O)N(C)CC)CC(=O)N(C)[C@@H]([C@H](C)OC)C(=O)N[C@@H]([C@@H](C)CC)C(=O)N(C3CC3)CC(=O)N(C)[C@H]3C/C=C\CCN(C3=O)[C@@H](Cc3ccc(C(F)(F)F)cc3)C(=O)N(C)CC(=O)N[C@@H](CCc3cc(F)c(C(F)(F)F)c(F)c3)C(=O)N2C1 [PP3220]
[1]
  Kd: 0.52 nM
[2]
  NRAS /KRAS: A (a compound having 10 or more and less than 20 is denoted as A)
HRAS wild-type protein
  HRAS /KRAS: A (a compound having 10 or more and less than 20 is denoted as A)
[3]
  IC50: 25.7 nM

## CCO[C@@H]1C[C@H]2C(=O)NC3(CC(C)(C)C3)C(=O)N(C)[C@@H](C3CCCC3)C(=O)N(C)[C@H](C(=O)N(C)CC)CC(=O)N(C)[C@@H]([C@H](C)OC)C(=O)N[C@@H]([C@@H](C)CC)C(=O)N(C3CC3)CC(=O)N(C)[C@H]3C/C=C\CCN(C3=O)[C@@H](Cc3ccc(C(F)(F)F)cc3)C(=O)N(C)CC(=O)N[C@@H](CCc3ccc(C(F)(F)F)c(Cl)c3)C(=O)N2C1 [PP3221]
[1]
  Kd: 0.82 nM
[2]
  NRAS /KRAS: A (a compound having 10 or more and less than 20 is denoted as A)
HRAS wild-type protein
  HRAS /KRAS: A (a compound having 10 or more and less than 20 is denoted as A)
[3]
  IC50: 51.5 nM

## CCO[C@@H]1C[C@H]2C(=O)NC3(CC(C)(C)C3)C(=O)N(C)[C@@H](C3CCCC3)C(=O)N(C)[C@H](C(=O)N(C)CC)CC(=O)N(C)[C@@H]([C@H](C)OC)C(=O)N[C@@H]([C@@H](C)CC)C(=O)N3CCC[C@H]3C(=O)N(C)[C@H]3C/C=C\CCN(C3=O)[C@@H](Cc3ccc(C(F)(F)F)cc3)C(=O)N(C)CC(=O)N[C@@H](CCc3ccc(C(F)(F)F)c(OC)c3)C(=O)N2C1 [PP3222]
[1]
  Kd: 1.4 nM
[2]
  NRAS /KRAS: A (a compound having 10 or more and less than 20 is denoted as A)
HRAS wild-type protein
  HRAS /KRAS: A (a compound having 10 or more and less than 20 is denoted as A)
[3]
  IC50: 71.7 nM
